Source: US9512086B2, “Compound for promoting apoptosis of cancer cells and a pharmaceutical composition containing the same and uses thereof” (National Chiao Tung University, priority 2014, dated 2016)

Tested on: A549 cell line
Assay: MTT cell viability, A549 cell line
Assay type: cell-based, human
Conditions: Homo sapiens, A549 cell line, 24 hours, MTT
Description: The above cell lines were plated in 96-well plates at a density of 1×10^4 cells/well for 16 to 20 hours. […] After drug treatment, the cell lines were washed with phosphate-buffered saline (hereinafter referred to PBS), and were replaced with fresh complete RPMI-1640 medium for 2 days. Thereafter, the medium was replaced and the cells were incubated with 0.5 mg/ml of 3-(4,5-dimethylthiazol-2-yl)-2,5-diphenyltetrazolium bromide reagent (hereinafter referred to MTT, Sigma Chemical Co., St. Louis, Mo.) in complete RPMI-1640 medium for 4 hours. The viable cells converted MTT to formazan that generates a blue-purple color when dissolved in dimethyl sulfoxide (hereinafter referred to DMSO). The intensity of formazan was measured at 565 nm using a plate reader (VERSAmax, Molecular Dynamics, Sunnyvale, Calif.). The relative percentage of cell viability was calculated by dividing the absorbance of treated cells by that of the control in each experiment.
After drug treatment, the cells were washed with PBS and replaced with fresh complete RPMI-1640 medium for 2 days. Thereafter, the medium was replaced and the cells were incubated with 0.5 mg/mL of MTT reagent (Sigma Chemical Co., St. Louis, Mo.) in complete RPMI-1640 medium for 4 hours. The intensity of formazan was measured at 565 nm using a plate reader (VERSAmax, Molecular Dynamics, Sunnyvale, Calif.). The relative percentage of cell viability was calculated by dividing the absorbance of treated cells by that of the control in each experiment.

Structure (SMILES) | viability at 10 µM [%] | viability at 20 µM [%] | viability at 40 µM [%] | viability at 60 µM [%] | viability at 80 µM [%]
COC(=O)CCCC(=O)N1CCN(CCCOc2cc3c(Nc4ccc(F)c(Cl)c4)ncnc3cc2OC)CC1 [Analogue-3, methyl 5-(4-(3-(4-(3-chloro-4-fluorophenylamino)-7-methoxyquinazolin-6-yloxy)propyl)piperazin-1-yl)-5-oxopentanoate] | 99.9 | 94.8 | 91.9 | 91.3 | 89.8
COC(=O)CCCCC(=O)N1CCN(CCCOc2cc3c(Nc4ccc(F)c(Cl)c4)ncnc3cc2OC)CC1 [Analogue-4, methyl 6-(4-(3-(4-(3-chloro-4-fluorophenylamino)-7-methoxyquinazolin-6-yloxy)propyl)piperazin-1-yl)-6-oxohexanoate] | 94.6 | 90.4 | 84.3 | 83.3 | 79.4
COC(=O)CCCCCC(=O)N1CCN(CCCOc2cc3c(Nc4ccc(F)c(Cl)c4)ncnc3cc2OC)CC1 [Analogue-5, methyl 7-(4-(3-(4-(3-chloro-4-fluorophenylamino)-7-methoxyquinazolin-6-yloxy)propyl)piperazin-1-yl)-7-oxoheptanoate] | 95.2 | 91.7 | 90.1 | 83.4 | 82.4
COC(=O)CCCCCCC(=O)N1CCN(CCCOc2cc3c(Nc4ccc(F)c(Cl)c4)ncnc3cc2OC)CC1 [Analogue-6, methyl 8-(4-(3-(4-(3-chloro-4-fluorophenylamino)-7-methoxyquinazolin-6-yloxy)propyl)piperazin-1-yl)-8-oxooctanoate] | 92 | 94.3 | 90.7 | 88.5 | 88.9
COC(=O)CCCCCCCC(=O)N1CCN(CCCOc2cc3c(Nc4ccc(F)c(Cl)c4)ncnc3cc2OC)CC1 [Analogue-7, methyl 9-(4-(3-(4-(3-chloro-4-fluorophenylamino)-7-methoxyquinazolin-6-yloxy)propyl)piperazin-1-yl)-9-oxononanoate] | 90.3 | 89.7 | 85.8 | 84.8 | 80.9
CCOC(=O)CCC(=O)N1CCN(CCCOc2cc3c(Nc4ccc(F)c(Cl)c4)ncnc3cc2OC)CC1 [Analogue-8, ethyl 4-(4-(3-(4-(3-chloro-4-fluorophenylamino)-7-methoxyquinazolin-6-yloxy)propyl)piperazin-1-yl)-4-oxobutanoate] | 77.6 | 70 | 67.4 | 61.6 | 35.6
CCCOC(=O)CCC(=O)N1CCN(CCCOc2cc3c(Nc4ccc(F)c(Cl)c4)ncnc3cc2OC)CC1 [Analogue-9, propyl 4-(4-(3-(4-(3-chloro-4-fluorophenylamino)-7-methoxyquinazolin-6-yloxy)propyl)piperazin-1-yl)-4-oxobutanoate] | 95.1 | 87 | 80.9 | 70.4 | 23.4
CCCCOC(=O)CCC(=O)N1CCN(CCCOc2cc3c(Nc4ccc(F)c(Cl)c4)ncnc3cc2OC)CC1 [Analogue-10, butyl 4-(4-(3-(4-(3-chloro-4-fluorophenylamino)-7-methoxyquinazolin-6-yloxy)propyl)piperazin-1-yl)-4-oxobutanoate] | 94.4 | 86 | 79.1 | 64.1 | 36.9
CCCCCOC(=O)CCC(=O)N1CCN(CCCOc2cc3c(Nc4ccc(F)c(Cl)c4)ncnc3cc2OC)CC1 [Analogue-11, pentyl 4-(4-(3-(4-(3-chloro-4-fluorophenylamino)-7-methoxyquinazolin-6-yloxy)propyl)piperazin-1-yl)-4-oxobutanoate] | 87.1 | 81.2 | 63.6 | 30 | 18.2
CCCCCCOC(=O)CCC(=O)N1CCN(CCCOc2cc3c(Nc4ccc(F)c(Cl)c4)ncnc3cc2OC)CC1 [Analogue-12, hexyl 4-(4-(3-(4-(3-chloro-4-fluorophenylamino)-7-methoxyquinazolin-6-yloxy)propyl)piperazin-1-yl)-4-oxobutanoate] | 89.3 | 85.1 | 74.2 | 63.6 | 42.9
CCCCCCCOC(=O)CCC(=O)N1CCN(CCCOc2cc3c(Nc4ccc(F)c(Cl)c4)ncnc3cc2OC)CC1 [Analogue-13, heptyl 4-(4-(3-(4-(3-chloro-4-fluorophenylamino)-7-methoxyquinazolin-6-yloxy)propyl)piperazin-1-yl)-4-oxobutanoate] | 89.1 | 79.9 | 59.1 | 35.7 | 27.2
CCCCCCCCOC(=O)CCC(=O)N1CCN(CCCOc2cc3c(Nc4ccc(F)c(Cl)c4)ncnc3cc2OC)CC1 [Analogue-14, octyl 4-(4-(3-(4-(3-chloro-4-fluorophenylamino)-7-methoxyquinazolin-6-yloxy)propyl)piperazin-1-yl)-4-oxobutanoate] | 87.3 | 80 | 48.7 | 26 | 21.7
CCCCCCCCCOC(=O)CCC(=O)N1CCN(CCCOc2cc3c(Nc4ccc(F)c(Cl)c4)ncnc3cc2OC)CC1 [Analogue-15, nonyl 4-(4-(3-(4-(3-chloro-4-fluorophenylamino)-7-methoxyquinazolin-6-yloxy)propyl)piperazin-1-yl)-4-oxobutanoate] | 90 | 79.7 | 17.9 | 10.3 | 7.8
CCCCCCCCCCOC(=O)CCC(=O)N1CCN(CCCOc2cc3c(Nc4ccc(F)c(Cl)c4)ncnc3cc2OC)CC1 [Analogue-16, decyl 4-(4-(3-(4-(3-chloro-4-fluorophenylamino)-7-methoxyquinazolin-6-yloxy)propyl)piperazin-1-yl)-4-oxobutanoate] | 95.7 | 88.2 | 15.5 | 3.9 | 2
CCCCCCCCCCCOC(=O)CCC(=O)N1CCN(CCCOc2cc3c(Nc4ccc(F)c(Cl)c4)ncnc3cc2OC)CC1 [Analogue-17, undecyl 4-(4-(3-(4-(3-chloro-4-fluorophenylamino)-7-methoxyquinazolin-6-yloxy)propyl)piperazin-1-yl)-4-oxobutanoate] | 93.4 | 85.2 | 12 | 3.9 | 2.8
CCCCCCCCCCCCCOC(=O)CCC(=O)N1CCN(CCCOc2cc3c(Nc4ccc(F)c(Cl)c4)ncnc3cc2OC)CC1 [Analogue-19, tridecyl 4-(4-(3-(4-(3-chloro-4-fluorophenylamino)-7-methoxyquinazolin-6-yloxy)propyl)piperazin-1-yl)-4-oxobutanoate] | 93.7 | 93.8 | 71.1 | 20.6 | 6.8
CCCCCCCCCCCCCCOC(=O)CCC(=O)N1CCN(CCCOc2cc3c(Nc4ccc(F)c(Cl)c4)ncnc3cc2OC)CC1 [Analogue-20, tetradecyl 4-(4-(3-(4-(3-chloro-4-fluorophenylamino)-7-methoxyquinazolin-6-yloxy)propyl)piperazin-1-yl)-4-oxobutanoate] | 100 | 92.3 | 88.6 | 84.9 | 77.2
CCCCCCCCCCCCCCCOC(=O)CCC(=O)N1CCN(CCCOc2cc3c(Nc4ccc(F)c(Cl)c4)ncnc3cc2OC)CC1 [Analogue-21, pentadecyl 4-(4-(3-(4-(3-chloro-4-fluorophenylamino)-7-methoxyquinazolin-6-yloxy)propyl)piperazin-1-yl)-4-oxobutanoate] | 92 | 91.2 | 85.5 | 81.6 | 81.1
CCCCCCCCCCCCCCCCOC(=O)CCC(=O)N1CCN(CCCOc2cc3c(Nc4ccc(F)c(Cl)c4)ncnc3cc2OC)CC1 [Analogue-22, hexadecyl 4-(4-(3-(4-(3-chloro-4-fluorophenylamino)-7-methoxyquinazolin-6-yloxy)propyl)piperazin-1-yl)-4-oxobutanoate] | 97.7 | 91.7 | 82.6 | 80 | 74.3
CCCCCCCCCCCCCCCCCOC(=O)CCC(=O)N1CCN(CCCOc2cc3c(Nc4ccc(F)c(Cl)c4)ncnc3cc2OC)CC1 [Analogue-23, heptadecyl 4-(4-(3-(4-(3-chloro-4-fluorophenylamino)-7-methoxyquinazolin-6-yloxy)propyl)piperazin-1-yl)-4-oxobutanoate] | 95.7 | 97.2 | 85.2 | 84.1 | 83.2
